From US20200239921A1, “CHEMOENZYMATIC SYNTHESIS OF S-NUCLEOSYL AMINO ACIDS (SNA), ANALOGS OF S-ADENOSYL-L-METHIONINE AND S-ADENOSYL-L- HOMOCYSTEINE AND USES THEREOF” (ALBERT EINSTEIN COLLEGE OF MEDICINE, priority 2016, published 2020)

Legend:
[1] = molecular target: T1, Methanococcus jannaschii MAT (MjMAT) (Methanocaldococcus jannaschii, UniProt Q58605); test: MjMAT substrate specificity (HPLC); format: biochemical; conditions: in the presence of ATP
T1 construct: made in house; host or cells: E. coli
T1 sequence (Q58605 1-406): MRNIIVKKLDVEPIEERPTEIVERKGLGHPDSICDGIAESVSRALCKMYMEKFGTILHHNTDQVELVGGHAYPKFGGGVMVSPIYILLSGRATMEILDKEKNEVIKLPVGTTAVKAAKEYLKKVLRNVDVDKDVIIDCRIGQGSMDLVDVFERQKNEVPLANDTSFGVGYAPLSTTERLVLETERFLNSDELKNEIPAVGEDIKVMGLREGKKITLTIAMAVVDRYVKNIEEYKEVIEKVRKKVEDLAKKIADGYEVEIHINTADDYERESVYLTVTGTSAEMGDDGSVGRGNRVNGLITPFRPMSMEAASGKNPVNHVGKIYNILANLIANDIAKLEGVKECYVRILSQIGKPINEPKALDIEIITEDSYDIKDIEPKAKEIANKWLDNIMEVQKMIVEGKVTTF
Experimental: Synthetic chemical approaches yield a 1:1 mixture of the two SAM stereoisomers (FIG. 4A, shaded middle frame). The enzymes that catalyze the formation of SAM from ATP and L-methionine in vivo are used to produce SAM analogs (MAT; FIG. 4A, top enzymatic approach). Adenosine phosphorylation is performed by kinases (e.g. adenosine kinase ‘AK’, myokinase ‘MK’ and pyruvate kinase ‘PK’; FIG. 4, top enzymatic approach). MAT proteins are well characterized and several mechanistic and structural biology reports make these enzymes the preferred biocatalyst for rapid access to SAM analogs. Methanococcus jannaschii MAT has been purified (MjMAT; FIG. 4B).
(§1) An enzyme array to incorporate a broad spectrum of methionine analogs. To expand the SNA library, the reactivity of several methionine analogs (FIG. 4C, amino-acid tail labelled ‘METHIONINE’) was screened toward MjMAT in the presence of ATP. […] MAT enzymes from Neisseria meningitidis (Nm) and Campylobacter jejuni (Cj) (FIG. 4B) were expressed and purified.

[2] = test system: MAT from Neisseria meningitidis (NmMAT); test: NmMAT methionine analog specificity; format: biochemical; conditions: FIG. 6
Text: as §1

[3] = test system: MAT from Campylobacter jejuni (CjMAT); test: CjMAT methionine analog specificity; format: biochemical; conditions: FIG. 6
Text: as §1

[4] = molecular target: T2, SAM-dependent chlorinase from Salinispora tropica (StSalL) (Salinispora tropica, UniProt A4X3Q0); test: StSalL methionine analog specificity; format: biochemical; conditions: in the presence of 5′-chloro-5′-deoxy adenosine
T2 construct: made in house; host or cells: E. coli
T2 sequence (A4X3Q0 1-283): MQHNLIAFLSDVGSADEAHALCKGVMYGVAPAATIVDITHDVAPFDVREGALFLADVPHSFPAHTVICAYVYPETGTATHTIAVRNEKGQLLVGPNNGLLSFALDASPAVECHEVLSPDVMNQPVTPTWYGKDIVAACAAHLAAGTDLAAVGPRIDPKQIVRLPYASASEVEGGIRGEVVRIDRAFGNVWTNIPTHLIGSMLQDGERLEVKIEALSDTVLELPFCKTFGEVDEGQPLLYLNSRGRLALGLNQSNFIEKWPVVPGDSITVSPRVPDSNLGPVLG
Experimental: The unique SAM-dependent chlorinase from the marine organism Salinispora tropica (StSalL) is a key enzyme for salinosporamide A biosynthesis. Although the occurrence of high chloride concentration (i.e. 546 mM) in sea water shifts the chemical equilibrium away from SAM synthesis, this reaction is reversible in vitro. StSalL (FIG. 4B) was expressed and purified, and the methionine analog specificity for this enzyme was determined in the presence of 5′-chloro-5′-deoxy adenosine (5′-ClDA; FIG. 6).

[5] = molecular target: T3, S-adenosyl-L-homocysteine hydrolase from Lupinus luteus (L/SAHH) (Lupinus luteus, UniProt Q9SP37); test: SAHH-catalysed synthesis of SAH analogs; format: biochemical; conditions: in vitro, reaction displaced toward SAH production
T3 construct: made in house; host or cells: E. coli
T3 sequence (Q9SP37 1-485): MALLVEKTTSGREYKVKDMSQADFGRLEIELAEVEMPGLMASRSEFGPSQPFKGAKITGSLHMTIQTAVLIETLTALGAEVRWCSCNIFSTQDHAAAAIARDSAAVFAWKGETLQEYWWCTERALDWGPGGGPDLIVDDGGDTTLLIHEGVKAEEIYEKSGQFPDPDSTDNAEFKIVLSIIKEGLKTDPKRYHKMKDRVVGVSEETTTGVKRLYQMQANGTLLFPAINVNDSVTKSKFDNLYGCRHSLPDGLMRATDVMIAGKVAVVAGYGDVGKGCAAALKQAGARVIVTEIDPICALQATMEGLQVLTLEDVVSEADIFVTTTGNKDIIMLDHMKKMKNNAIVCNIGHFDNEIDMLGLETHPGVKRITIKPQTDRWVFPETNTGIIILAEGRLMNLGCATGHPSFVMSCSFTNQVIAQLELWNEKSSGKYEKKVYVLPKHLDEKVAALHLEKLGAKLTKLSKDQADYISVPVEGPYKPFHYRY
Text: Alternative chemoenzymatic routes. A few SNA probes are difficult to prepare. To broaden the substrate diversity, the reversible reaction catalyzed by S-adenosyl-L-homocysteine hydrolase from Lupinus luteus (L/SAHH) that is displaced toward SAH production in vitro was used (FIG. 5B). […] This powerful catalyst was a useful tool for production of S-nucleosyl-L-homocysteine and S-nucleosyl-L-cysteine analogs (SNH and SNC, respectively). Unlike SAM analogs, SNH and SNC probes are not substrates for PRMTs, so they are assayed as competitive inhibitors.

[6] = test system: AK/MK/PK enzymatic system; test: AK/MK/PK enzymatic conversion to nucleoside triphosphate; format: biochemical
[7] = test system: PRMT1; conditions: cited from earlier work
[8] = test system: methyltransferases; conditions: FIG. 2 first row from table; cited from earlier work

CSCC[C@@H](N)C(=O)O [M1, D-methionine]
reactivity of methionine analog toward MjMAT [1]: efficiently processed

CSCCC(O)C(=O)O (centres unmarked) [M4, 2-hydroxy-4-(methylthio) butanoic acid]
reactivity of methionine analog toward MjMAT [1]: reactivity was not observed | reactivity of methionine analog toward NmMAT [2]: reactivity was not observed | reactivity of methionine analog toward CjMAT [3]: reactivity was not observed | reactivity of methionine analog toward StSalL [4]: Reactivity was observed

CSCC[C@H](N)CO [M3, (S)-(−)-methioniol]
reactivity of methionine analog toward CjMAT [3]: excellent substrate

N[C@@H](CS)C(=O)O [L-cysteine]
utilization as substrate by SAHH [5]: could utilize

CSCC[C@H](N)C(=O)O [M0, L-methionine]
reactivity of methionine analog toward MjMAT [1]: efficiently processed

Nc1ncnc2c1ncn2[C@@H]1O[C@H](CO)[C@@H](O)[C@@H]1F [942′-deoxy-2′-fluoro-β-D-arabinofuranosylladenine]
reactivity in AK/MK/PK enzymatic system [6]: low reactivity

N[C@@H](CCS)C(=O)O [L-homocysteine]
utilization as substrate by SAHH [5]: could utilize

NCCCSC[C@H]1O[C@@H](n2cnc3c(N)ncnc32)[C@H](O)[C@@H]1O [S-(5′-adenosyl)-3-thiopropylamine]
selectivity for PRMT1 over PRMT6 [7]: 10 fold

Nc1ncnc2c1ncn2[C@@H]1O[C@H](CSCC[C@H](N)C(=O)O)[C@@H](O)[C@H]1O [SAH, S-adenosyl-L-homocysteine]
inhibition of methyltransferases (in words) [8]: potent, yet non-specific, inhibitor of methyltransferases

CSCC[C@](C)(N)C(=O)O [M2, α-methyl-methionine]
reactivity of methionine analog toward NmMAT [2]: substrate | reactivity of methionine analog toward CjMAT [3]: substrate
